Earlier results on one molecule are cited in patent US8968725B2, “Genipin cross-linked fibrin gels” (University of Vermont and State Agricultural College, priority 2010, dated 2015).

This data set deals with mice. The conditions noted are these: mouse, in vivo, iv.

A word on the LD50: it is the dose expected to kill half of the subjects tested. With `COC(=O)C1=CO[C@@H](O)[C@H]2C(CO)=CC[C@H]12` [Genipin, Methyl (1R,2R,6S)-2-hydroxy-9-(hydroxymethyl)-3-oxabicyclo[4.3.0]nona-4,8-diene-5-carboxylate], the LD50 is given as 382 mg/kg.
